Target: T1, lysozyme-COT 15 in HEK293T cell lysate (Gallus gallus, UniProt P00698)
T1 construct: purchased
Test: Protein labeling in the presence of HEK293T cell lysate
Format: biochemical
Details: 13 and lysozyme-COT 15, HEK293T cell lysate, PBS, 2 hours
Description: There appeared to be no cross-reactivity between dialkylhydroxylamine and other proteins under these conditions.
Cell Culture: HEK-293T cells were cultured in Dulbecco's Modified Eagle Media (DMEM, Corning®) containing 10% fetal bovine serum (FBS, Sigma), 100 units/mL penicillin, and 0.1 mg/mL streptomycin (Sigma) in a humidified chamber at 37° C. with 5% CO2. Cells were passaged and dissociated with 0.25% trypsin, 0.1% ethylenediaminetetraacetic acid (EDTA) in Hanks' balanced salt solution (HBSS) (Corning®). Cells tested negative for […] by the MycoAlert™ PLUS Mycoplasma Detection Kit (Lonza) following the manufacturer's protocol.
Cell Lysate: Cell culture media was aspirated prior to lysis. Cells (10 cm dish, ˜80% confluency) was lysed by adding lysis buffer (1.0 mL, 4° C.; 150 mM NaCl, 50 mM Tris (pH 8.0), 1% triton X-100). After centrifugation (13,000×g) at 4° C., the supernatant was transferred to a clean tube, and the protein concentration was determined by BCA (bicinchoninic acid) protein assay (Pierce™ BCA Protein Assay Kit). […]
Protein Labeling Experiments: Lysozyme-COT 15 (0.75 μg, 5.0 μL, 0.15 mg/mL in deionized water) was aliquoted to form 4 samples. […] In-gel fluorescence was imaged with a Typhoon™ FLA 9500 (GE) at 532 nm with a photomultiplier tube (PMT) setting of 500 V. The experiment was carried out in triplicate.

T1 sequence (P00698 19-147): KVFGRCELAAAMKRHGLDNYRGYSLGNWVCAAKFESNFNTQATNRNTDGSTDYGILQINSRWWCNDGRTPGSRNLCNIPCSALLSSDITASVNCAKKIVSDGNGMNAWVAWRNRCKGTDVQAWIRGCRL

CN(O)CCOCCNC(=O)c1ccc2c(c1)C1(OC2=O)c2ccc(N(C)C)cc2Oc2cc(N(C)C)ccc21 [compound 13, 3′,6′-bis(dimethylamino)-N-(2-(2-(hydroxy(methyl)amino)ethoxy)ethyl)-3-oxo-3H-spiro[isobenzofuran-1,9′-xanthene]-6-carboxamide]
labeling specificity in the presence of cell lysate: lysozyme was labeled exclusively

— US20240165259A1, “BIOORTHOGONAL REACTION SUITABLE FOR CLICK/UNCLICK APPLICATIONS” (DANA-FARBER CANCER INSTITUTE, INC., priority 2021, published 2024)
